Experimental data from US20110086759A1, “CHEMICAL COMPOUNDS” (SYNGENTA CROP PROTECTION, INC., priority 2007, published 2011).

Experiments:
Type in all cases: in vivo
[1] = tested on: Alopecurus myosuroides (ALOMY); experiment: Pre-emergence biological efficacy, glasshouse pot test; conditions: 312 h
Method in brief: (§1)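 One day after sowing in standard soil, pots were sprayed with compound in acetone/water (50:50) with 0.5% Tween 20, at 1000 or 250 g/ha. Plants grew at 24/16° C day/night, 14 h light, 65% humidity. Damage was scored after 13 days (0 = none, 100 = total).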

[2] = tested on: Amaranthus retoflexus (AMARE); experiment: as above; conditions: Amaranthus retroflexus, 312 h
Method in brief: as §1

[3] = tested on: Echinochloa crus-galli (ECHCG); experiment: as above; conditions: 312 h
Method in brief: as §1

[4] = tested on: Ipomea hederaceae (IPOHE); experiment: as above; conditions: Ipomoea hederacea, 312 h
Method in brief: as §1

Setaria faberi (SETFA) [5] = experiment: as above; conditions: 312 h
Method in brief: as §1

Solanum nigrum (SOLNI) [6] = experiment: as above; conditions: 312 h
Method in brief: as §1

[7] = tested on: Alopecurus myosuroides (ALOMY); experiment: Post-emergence biological efficacy, glasshouse pot test; conditions: 312 h
Method in brief: (§2)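 Pot-grown weeds were sprayed 8 days after sowing with test compound in acetone/water (50:50) with 0.5% Tween 20 at 1000 or 250 g/ha. Glasshouse at 24/16° C day/night, 14 h light, 65% humidity. Damage scored 0-100 (100 = total damage) after 13 days.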

[8] = tested on: Amaranthus retoflexus (AMARE); experiment: as above; conditions: Amaranthus retroflexus, 312 h
Method in brief: as §2

[9] = tested on: Echinochloa crus-galli (ECHCG); experiment: as above; conditions: 312 h
Method in brief: as §2

[10] = tested on: Ipomea hederaceae (IPOHE); experiment: as above; conditions: Ipomoea hederacea, 312 h
Method in brief: as §2

Setaria faberi (SETFA) [11] = experiment: as above; conditions: 312 h
Method in brief: as §2

Solanum nigrum (SOLNI) [12] = experiment: as above; conditions: 312 h
Method in brief: as §2

[13] = pre-emergence, 1,000 g/ha, evaluated after 13 days (100=total damage; 0=no damage), read-out: Percentage damage ALOMY
[14] = pre-emergence, 1,000 g/ha, evaluated after 13 days (100=total damage; 0=no damage), read-out: Percentage damage AMARE
[15] = pre-emergence, 1,000 g/ha, evaluated after 13 days (100=total damage; 0=no damage), read-out: Percentage damage ECHCG
[16] = pre-emergence, 1,000 g/ha, evaluated after 13 days (100=total damage; 0=no damage), read-out: Percentage damage IPOHE
[17] = pre-emergence, 1,000 g/ha, evaluated after 13 days (100=total damage; 0=no damage), read-out: Percentage damage SETFA
[18] = pre-emergence, 1,000 g/ha, evaluated after 13 days (100=total damage; 0=no damage), read-out: Percentage damage SOLNI
[19] = post-emergence, 1,000 g/ha, evaluated after 13 days (100=total damage; 0=no damage), read-out: Percentage damage caused to weed species, ALOMY
[20] = post-emergence, 1,000 g/ha, evaluated after 13 days (100=total damage; 0=no damage), read-out: Percentage damage caused to weed species, AMARE
[21] = post-emergence, 1,000 g/ha, evaluated after 13 days (100=total damage; 0=no damage), read-out: Percentage damage caused to weed species, ECHCG
[22] = post-emergence, 1,000 g/ha, evaluated after 13 days (100=total damage; 0=no damage), read-out: Percentage damage caused to weed species, IPOHE
[23] = post-emergence, 1,000 g/ha, evaluated after 13 days (100=total damage; 0=no damage), read-out: Percentage damage caused to weed species, SETFA
[24] = post-emergence, 1,000 g/ha, evaluated after 13 days (100=total damage; 0=no damage), read-out: Percentage damage caused to weed species, SOLNI
[25] = pre-emergence, rate 1,000 g/ha, evaluated after 13 days (100=total damage to plant; 0=no damage), read-out: Percentage damage caused to weed species, ALOMY
[26] = pre-emergence, rate 1,000 g/ha, evaluated after 13 days (100=total damage to plant; 0=no damage), read-out: Percentage damage caused to weed species, AMARE
[27] = pre-emergence, rate 1,000 g/ha, evaluated after 13 days (100=total damage to plant; 0=no damage), read-out: Percentage damage caused to weed species, ECHCG
[28] = pre-emergence, rate 1,000 g/ha, evaluated after 13 days (100=total damage to plant; 0=no damage), read-out: Percentage damage caused to weed species, IPOHE
[29] = pre-emergence, rate 1,000 g/ha, evaluated after 13 days (100=total damage to plant; 0=no damage), read-out: Percentage damage caused to weed species, SETFA
[30] = pre-emergence, rate 1,000 g/ha, evaluated after 13 days (100=total damage to plant; 0=no damage), read-out: Percentage damage caused to weed species, SOLNI
[31] = Rate 1,000 g/ha, post-emergence spray, evaluated after 13 days (100=total damage to plant; 0=no damage to plant), read-out: Percentage damage caused to weed species, post-emergence, ALOMY
[32] = Rate 1,000 g/ha, post-emergence spray, evaluated after 13 days (100=total damage to plant; 0=no damage to plant), read-out: Percentage damage caused to weed species, post-emergence, AMARE
[33] = Rate 1,000 g/ha, post-emergence spray, evaluated after 13 days (100=total damage to plant; 0=no damage to plant), read-out: Percentage damage caused to weed species, post-emergence, ECHCG
[34] = Rate 1,000 g/ha, post-emergence spray, evaluated after 13 days (100=total damage to plant; 0=no damage to plant), read-out: Percentage damage caused to weed species, post-emergence, IPOHE
[35] = Rate 1,000 g/ha, post-emergence spray, evaluated after 13 days (100=total damage to plant; 0=no damage to plant), read-out: Percentage damage caused to weed species, post-emergence, SETFA
[36] = Rate 1,000 g/ha, post-emergence spray, evaluated after 13 days (100=total damage to plant; 0=no damage to plant), read-out: Percentage damage caused to weed species, post-emergence, SOLNI

| Compound | pest or weed control at 1000 g/ha [1, 13] [%] | pest or weed control at 1000 g/ha [2, 14] [%] | pest or weed control at 1000 g/ha [3, 15] [%] | pest or weed control at 1000 g/ha [4, 16] [%] | pest or weed control at 1000 g/ha (Setaria faberi (SETFA) [5]; [17]) [%] | pest or weed control at 1000 g/ha (Solanum nigrum (SOLNI) [6]; [18]) [%] | pest or weed control at 1000 g/ha [7, 19] [%] | pest or weed control at 1000 g/ha [8, 20] [%] | pest or weed control at 1000 g/ha [9, 21] [%] | pest or weed control at 1000 g/ha [10, 22] [%] | pest or weed control at 1000 g/ha (Setaria faberi (SETFA) [11]; [23]) [%] | pest or weed control at 1000 g/ha (Solanum nigrum (SOLNI) [12]; [24]) [%] | also measured |
| --- | --- | --- | --- | --- | --- | --- | --- | --- | --- | --- | --- | --- | --- |
| COC(=O)c1nc(C2CC2)nc(NC(Cc2ccccc2)c2ccccc2)c1Cl (stereo not drawn) [Compound 4-279, 5-Chloro-2-cyclopropyl-4-(1,2-diphenylethyl-amino)-6-methoxy-carbonylpyrimidine] | 10 | 20 | 0 | 60 | 0 | 70 | 10 | 90 | 0 | 60 | 40 | 70 |  |
| COC(=O)c1nc(C2CC2)nc(NCc2cc(C(F)(F)F)cc(C(F)(F)F)c2)c1Cl [Compound 4-108, 4-(3,5-Bis-trifluoro-methylphenyl-methylamino)-5-chloro-2-cyclo-propyl-6-methoxy-carbonylpyrimidine] | 0 | 40 | 0 | 40 | 10 | 0 | 10 | 50 | 10 | 70 | 20 | 90 |  |
| COC(=O)c1nc(-c2ccc(OC(F)(F)F)cc2)nc(NCc2ccco2)c1Cl [Compound 248-48, 5-Chloro-4-(furan-2-ylmethylamino)-6-methoxycarbonyl-2-(4-trifluoromethoxy-phenyl)pyrimidine] |  |  |  |  |  |  |  |  |  |  |  |  | pest or weed control at 1000 g/ha [1, 25]: 0%; pest or weed control at 1000 g/ha [2, 26]: 60%; pest or weed control at 1000 g/ha [3, 27]: 0%; pest or weed control at 1000 g/ha [4, 28]: 0%; pest or weed control at 1000 g/ha (Setaria faberi (SETFA) [5]; [29]): 0%; pest or weed control at 1000 g/ha (Solanum nigrum (SOLNI) [6]; [30]): 20%; pest or weed control at 1000 g/ha [7, 31]: 0%; pest or weed control at 1000 g/ha [8, 32]: 70%; pest or weed control at 1000 g/ha [9, 33]: 40%; pest or weed control at 1000 g/ha [10, 34]: 50%; pest or weed control at 1000 g/ha (Setaria faberi (SETFA) [11]; [35]): 0%; pest or weed control at 1000 g/ha (Solanum nigrum (SOLNI) [12]; [36]): 70% |
| COC(=O)c1nc(C2CC2)nc(N(C)Cc2ccccc2F)c1Cl [Compound 5-64, 5-Chloro-2-cyclo-propyl-4-[N-(2-fluorophenylmethyl)-N-methyl]-6-methoxy-carbonylpyrimidine] |  |  |  |  |  |  |  |  |  |  |  |  | pest or weed control at 1000 g/ha [1, 25]: 10%; pest or weed control at 1000 g/ha [2, 26]: 70%; pest or weed control at 1000 g/ha [3, 27]: 20%; pest or weed control at 1000 g/ha [4, 28]: 80%; pest or weed control at 1000 g/ha (Setaria faberi (SETFA) [5]; [29]): 10%; pest or weed control at 1000 g/ha (Solanum nigrum (SOLNI) [6]; [30]): 70%; pest or weed control at 1000 g/ha [7, 31]: 20%; pest or weed control at 1000 g/ha [8, 32]: 100%; pest or weed control at 1000 g/ha [9, 33]: 80%; pest or weed control at 1000 g/ha [10, 34]: 100%; pest or weed control at 1000 g/ha (Setaria faberi (SETFA) [11]; [35]): 90%; pest or weed control at 1000 g/ha (Solanum nigrum (SOLNI) [12]; [36]): 90% |
| COC(=O)c1nc(C2CC2)nc(NCC2CCC=CO2)c1Cl (stereo not drawn) [Compound 4-56, 5-Chloro-2-cyclopropyl-4-[(3,4-dihydro-2H-pyran-2-yl)methylamino]-6-methoxy-carbonylpyrimidine] | 40 | 100 | 30 | 100 | 20 | 90 | 20 | 100 | 30 | 80 | 40 | 80 |  |
| COC(=O)c1nc(C2CC2)nc(NCc2ccc(OC(F)(F)F)cc2)c1Cl [Compound 4-83, 5-Chloro-2-cyclopropyl-6-methoxycarbonyl-4-(4-trifluoromethoxy-phenylmethyl-amino)pyrimidine] | 0 | 60 | 0 | 50 | 10 | 40 | 20 | 100 | 60 | 100 | 90 | 100 |  |
| COC(=O)c1nc(C2CC2)nc(NCCCc2ccccc2)c1Cl [Compound 4-249, 5-Chloro-2-cyclopropyl-6-methoxycarbonyl-4-(3-phenylpropyl-amino)pyrimidine] | 20 | 60 | 50 | 100 | 50 | 80 | 30 | 100 | 50 | 90 | 70 | 100 |  |
| COC(=O)c1nc(C2CC2)nc(NCc2cnc(Cl)s2)c1Cl [Compound 4-146, 5-Chloro-4-(2-chlorothiazol-5-ylmethylamino)-2-cyclopropyl-6-methoxycarbonyl-pyrimidine] | 50 | 70 | 50 | 100 | 0 | 40 | 20 | 90 | 50 | 80 | 70 | 90 |  |
| COC(=O)c1nc(C2CC2)nc(N[C@@H](CO)c2ccccc2)c1Cl [4-203 (R), 5-Chloro-2-cyclopropyl-4-[(1R)-2-hydroxy-1-phenyl-ethylamino]-6-methoxycarbonyl-pyrimidine] | 20 | 90 | 20 | 100 | 30 | 80 | 20 | 100 | 30 | 50 | 40 | 80 |  |
